# From US8962639B2, “Potassium channel modulators” (AbbVie Inc., priority 2009, dated 2015)
# Target: T1, human KCNQ2 and KCNQ3 (Homo sapiens, UniProt O43525+O43526)
# T1 construct: expressed in transfected cells; host or cells: HEK293
# Assay: KCNQ 2/3 channel activation, thallium flux FLIPR assay (BTC-AM dye) in HEK293 cells
# Type: cell-based
# Conditions: for Emax: HEK293, maximum response relative to response of retigabine at 10 μM set at 100%, read-out: Max response; for EC50: HEK293 cells stably expressing human KCNQ2 and KCNQ3, compound incubated 4 minutes, Tl+ flux fluorescence; for Max response: maximum response relative to response of retigabine at 10 μM set at 100%
# Procedure: The following example describes the assay that can be used to identify compounds that activate KCNQ 2/3 channels.
# HEK293 cells stably expressing human KCNQ2 and KCNQ3 were seeded in 96-well, black-walled, clear-bottomed, poly-D-lysine coated plates (BD Biosciences, Bedford, Mass.) at a density of 1×10^5 cells per well 24 hours before the assay. On the assay day, BTC-AM dye (Invitrogen, Carlsbad, Calif.) was loaded into the cells by replacing the cell culture medium with 100 μL/well of 4 μM dye in DPBS. Dye loading was allowed to proceed for 2 hours at room temperature and then cells were washed twice in 100 μL/well of assay buffer (in mM: 10 HEPES pH 7.3, 5 glucose, 140 Na-gluconate, 2.5 K-gluconate, 3.6 Ca-gluconate, 2 MgSO4, 0.1 Ouabain) to remove unloaded dye. Cells were incubated in 50 μL of assay buffer before loading onto a FLIPR system (Molecular Devices, Sunnyvale, Calif.). Various concentrations of compounds to be assayed were added to the cells in 50 μL of assay buffer and incubated for 4 minutes. The fluorescence signal was initiated by adding 100 μL of assay buffer containing 6 mM TlNO3 and 10 mM K2SO4. Fluors were excited using the 488-nm line of an argon laser and emission was filtered using a 540±30 nm bandpass filter. Fluorescent signals were recorded for 3 minutes. Responses over baseline values were plotted versus concentrations of test compounds to obtain an EC50 value. The maximum response for each test compound was determined relative to the response produced at 10 μM by retigabine. The maximum response of retigabine at 10 μM was set at 100%.
# T1 sequence (O43526 whole entry): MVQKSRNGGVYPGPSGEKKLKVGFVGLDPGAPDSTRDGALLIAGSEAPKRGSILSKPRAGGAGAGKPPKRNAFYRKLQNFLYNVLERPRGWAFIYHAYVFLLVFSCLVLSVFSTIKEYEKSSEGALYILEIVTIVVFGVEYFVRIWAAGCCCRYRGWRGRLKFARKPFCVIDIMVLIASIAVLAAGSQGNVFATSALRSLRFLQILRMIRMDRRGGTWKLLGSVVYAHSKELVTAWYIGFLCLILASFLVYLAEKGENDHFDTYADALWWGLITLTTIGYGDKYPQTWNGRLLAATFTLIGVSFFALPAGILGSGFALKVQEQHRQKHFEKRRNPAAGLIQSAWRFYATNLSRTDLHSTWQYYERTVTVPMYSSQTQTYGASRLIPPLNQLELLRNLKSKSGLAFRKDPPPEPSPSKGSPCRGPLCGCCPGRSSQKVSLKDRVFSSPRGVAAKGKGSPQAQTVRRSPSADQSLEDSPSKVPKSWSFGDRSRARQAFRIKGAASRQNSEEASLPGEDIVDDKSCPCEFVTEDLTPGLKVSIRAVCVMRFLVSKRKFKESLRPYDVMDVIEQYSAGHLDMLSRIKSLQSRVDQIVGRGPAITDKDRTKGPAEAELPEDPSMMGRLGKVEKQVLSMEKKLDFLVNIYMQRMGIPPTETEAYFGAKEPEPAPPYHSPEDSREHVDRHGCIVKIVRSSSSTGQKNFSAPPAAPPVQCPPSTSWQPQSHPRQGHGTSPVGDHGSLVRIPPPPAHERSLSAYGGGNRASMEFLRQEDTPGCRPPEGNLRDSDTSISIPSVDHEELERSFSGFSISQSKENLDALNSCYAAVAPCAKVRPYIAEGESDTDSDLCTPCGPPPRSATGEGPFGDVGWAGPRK
# T1 sequence (O43525 whole entry): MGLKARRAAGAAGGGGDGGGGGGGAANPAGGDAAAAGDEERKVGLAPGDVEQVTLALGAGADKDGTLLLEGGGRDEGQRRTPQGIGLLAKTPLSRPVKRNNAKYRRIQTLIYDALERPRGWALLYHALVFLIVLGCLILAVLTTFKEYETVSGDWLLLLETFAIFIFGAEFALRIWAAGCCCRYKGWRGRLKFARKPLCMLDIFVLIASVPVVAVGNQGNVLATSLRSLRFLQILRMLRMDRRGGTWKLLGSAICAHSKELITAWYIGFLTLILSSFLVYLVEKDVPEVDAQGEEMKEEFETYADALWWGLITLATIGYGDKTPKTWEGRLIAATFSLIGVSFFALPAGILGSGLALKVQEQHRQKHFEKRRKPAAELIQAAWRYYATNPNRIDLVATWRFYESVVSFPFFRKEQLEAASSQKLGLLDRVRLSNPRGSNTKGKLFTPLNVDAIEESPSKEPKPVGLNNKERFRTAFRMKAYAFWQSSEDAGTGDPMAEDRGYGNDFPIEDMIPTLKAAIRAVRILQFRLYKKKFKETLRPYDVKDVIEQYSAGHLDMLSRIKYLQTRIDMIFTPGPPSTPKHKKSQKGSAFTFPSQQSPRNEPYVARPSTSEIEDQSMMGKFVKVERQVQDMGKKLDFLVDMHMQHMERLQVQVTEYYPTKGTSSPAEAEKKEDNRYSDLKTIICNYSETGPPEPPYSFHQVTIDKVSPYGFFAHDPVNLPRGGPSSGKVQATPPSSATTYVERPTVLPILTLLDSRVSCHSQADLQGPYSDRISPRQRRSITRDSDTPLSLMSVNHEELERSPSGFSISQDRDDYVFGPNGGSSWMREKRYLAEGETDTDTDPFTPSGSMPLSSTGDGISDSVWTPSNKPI
Emax [%],EC50 [nM],Max response [%],SMILES
19.2,> 30000,,"CC(C)Sc1nc2sc(-c3ccccc3)cc2c(=O)n1NC(=O)CC12CC3CC(CC(C3)C1)C2 [Example 40, 2-(1-adamantyl)-N-[2-(isopropylthio)-4-oxo-6-phenylthieno[2,3-d]pyrimidin-3(4H)-yl]acetamide]"
-0.535,> 31600,,"O=C(CC12CC3CC(CC(Cl)(C3)C1)C2)Nn1c(C2CC2)nc2cc(C(F)(F)F)ccc2c1=O [Example 50, 2-[3-chloro-1-adamantyl]-N-[2-cyclopropyl-4-oxo-7-(trifluoromethyl)quinazolin-3(4H)-yl]acetamide]"
139,438,,"CCc1cc2c(=O)n(NC(=O)CC34CC5CC(CC(C5)C3)C4)cnc2s1 [Example 20, 2-(1-adamantyl)-N-(6-ethyl-4-oxothieno[2,3-d]pyrimidin-3(4H)-yl)acetamide]"
158,1130,,"CCc1nc2sccc2c(=O)n1NC(=O)CC1CC2CCC1C2 (racemic) [Example 24, (±)-exo-2-bicyclo[2.2.1]hept-2-yl-N-(2-ethyl-4-oxothieno[2,3-d]pyrimidin-3(4H)-yl)acetamide]"
124,404,,"CC(C)c1nc2ccccc2c(=O)n1NC(=O)[C@@H]1C[C@@H]2CC[C@H]1C2 (racemic) [Example 22, (±)-endo-N-(2-isopropyl-4-oxoquinazolin-3(4H)-yl)bicyclo[2.2.1]heptane-2-carboxamide]"
131,4950,,"O=C(CC1CC2CCC1C2)Nn1cnc2ccccc2c1=O (racemic) [Example 10, (±)-exo-2-bicyclo[2.2.1]hept-2-yl-N-(4-oxoquinazolin-3(4H)-yl)acetamide]"
116,250,,O=C(CC12CC3CC(CC(Cl)(C3)C1)C2)Nn1c(C2CC2)nc2cc(F)ccc2c1=O [Example 53]
109,7910,,"CCc1nc2sccc2c(=O)n1NC(=O)CC12CC3CC(CC(Cl)(C3)C1)C2 [Example 52, 2-[3-chloro-1-adamantyl]-N-(2-ethyl-4-oxothieno[2,3-d]pyrimidin-3(4H)-yl)acetamide]"
132,403,,"CC(C)c1nc2ccccc2c(=O)n1NC(=O)CC12CC3CC(CC(Cl)(C3)C1)C2 [Example 21, 2-[3-chloro-1-adamantyl]-N-(2-isopropyl-4-oxoquinazolin-3(4H)-yl)acetamide]"
4.46,17300,,"O=C(Nn1c(-c2ccccc2)nc2ccccc2c1=O)[C@H]1C[C@@H]2C=C[C@H]1C2 (racemic) [Example 34, (±)-(exo)-N-(4-oxo-2-phenylquinazolin-3(4 H)-yl)bicyclo[2.2.1]hept-5-ene-2-carboxamide]"
176,535,,"O=C(CC1CC2CCC1C2)Nn1c(-c2ccccc2)nc2ccccc2c1=O (racemic) [Example 12, (±)-exo-2-bicyclo[2.2.1]hept-2-yl-N-(4-oxo-2-phenylquinazolin-3(4H)-yl)acetamide]"

# Further lines, the compound ahead of its results:
SMILES,Emax [%],EC50 [nM],Max response [%]
"CC(=O)Nn1c(C23CC4CC(CC2C4)C3)nc2ccccc2c1=O [Example 4, N-(2-hexahydro-2,5-methanopentalen-3a(1H)-yl-4-oxoquinazolin-3(4H)-yl)acetamide]",60.4,2720,
"O=C(CCC12CC3CC(CC(C3)C1)C2)Nn1c(-c2ccccc2)nc2ccccc2c1=O [Example 15, 3-(1-adamantyl)-N-(4-oxo-2-phenylquinazolin-3(4H)-yl)propanamide]",79.7,309,
"O=C(CC12CC3CC(CC(C3)C1)C2)Nn1c(COc2ccccc2)nc2ccccc2c1=O [Example 25, 2-(1-adamantyl)-N-[4-oxo-2-(phenoxymethyl)quinazolin-3(4H)-yl]acetamide]",118,3010,
"CC(C)c1nc2ccccc2c(=O)n1NC(=O)CC1C2CCCC1CCC2 (stereo not drawn) [Example 56, 2-bicyclo[3.3.1]non-9-yl-N-(2-isopropyl-4-oxoquinazolin-3(4H)-yl)acetamide]",158,104,
"CC(C)c1nc2ccccc2c(=O)n1NC(=O)CC1CC2CCC1C2 (single isomer, unassigned; (-)) [Example 29, (−)-exo-2-[bicyclo[2.2.1]hept-2-yl]-N-(2-isopropyl-4-oxoquinazolin-3(4H)-yl)acetamide]",136,16.7,
"CCc1nc2ccccc2c(=O)n1NC(=O)CC1C2CCCC1CCC2 (stereo not drawn) [Example 57, 2-bicyclo[3.3.1]non-9-yl-N-(2-ethyl-4-oxoquinazolin-3(4H)-yl)acetamide]",148,344,
"CC(C)c1nc2ccccc2c(=O)n1NC(=O)CC1CC2CCC1C2 (racemic) [Example 42, (±)-2-[(endo)-bicyclo[2.2.1]hept-2-yl]-N-(2-isopropyl-4-oxoquinazolin-3(4H)-yl)acetamide]",,86.8,150
"O=C(CC12CC3CC(CC(Cl)(C3)C1)C2)Nn1c(C2CC2)nc2ccccc2c1=O [Example 51, 2-[3-chloro-1-adamantyl]-N-(2-cyclopropyl-4-oxoquinazolin-3(4H)-yl)acetamide]",152,160,
"CCc1nc2ccccc2c(=O)n1NC(=O)C12CC3CC(CC(C3)O1)C2 [Example 54, N-(2-ethyl-4-oxoquinazolin-3(4H)-yl)-2-oxatricyclo[3.3.1.1^3,7]decane-1-carboxamide]",5.5,> 31600,
"O=C(CC12CC3CC(CC(C3)C1)C2)Nn1cnc2ccc(Cl)cc2c1=O [Example 16, 2-(1-adamantyl)-N-(6-chloro-4-oxoquinazolin-3(4H)-yl)acetamide]",32.1,261,
"O=C(CC12CC3CC(CC(C3)C1)C2)Nn1cnc2ccc(Br)cc2c1=O [Example 36, 2-(1-adamantyl)-N-(6-bromo-4-oxoquinazolin-3(4H)-yl)acetamide]",10.8,> 30000,
"O=C(CC12CC3CC(CC(C3)C1)C2)Nn1cnc2sc(-c3ccccc3)cc2c1=O [Example 37, 2-(1-adamantyl)-N-(4-oxo-6-phenylthieno[2,3-d]pyrimidin-3(4H)-yl)acetamide]",9.51,> 30000,
"Cc1nc2sccc2c(=O)n1NC(=O)CC12CC3CC(CC(C3)C1)C2 [Example 17, 2-(1-adamantyl)-N-(2-methyl-4-oxothieno[2,3-d]pyrimidin-3(4H)-yl)acetamide]",61.1,2500,
"CC(C)c1nc2ccccc2c(=O)n1NC(=O)CC1CC2C=CC1C2 (racemic) [Example 18, (±)-endo-2-bicyclo[2.2.1]hept-5-en-2-yl-N-(2-isopropyl-4-oxoquinazolin-3(4H)-yl)acetamide]",163,747,
"CCc1nc2sccc2c(=O)n1NC(=O)CC12CC3CC(CC(C3)C1)C2 [Example 14, 2-(1-adamantyl)-N-(2-ethyl-4-oxothieno[2,3-d]pyrimidin-3(4H)-yl)acetamide]",120,691,
"O=C(CC12CC3CC(CC(C3)C1)C2)Nn1cnc2ccsc2c1=O [Example 26, 2-(1-adamantyl)-N-(4-oxothieno[3,2-d]pyrimidin-3(4H)-yl)acetamide]",140,2680,
"CC(C)c1nc2ccccc2c(=O)n1NC(=O)CC1CC2CCC1C2 (single isomer, unassigned; (+)) [Example 30, (+)-exo-2-[bicyclo[2.2.1]hept-2-yl]-N-(2-isopropyl-4-oxoquinazolin-3(4H)-yl)acetamide]",,47.7,145
"O=C(Nn1c(-c2ccccc2)nc2ccccc2c1=O)C1C2CC3CC(C2)CC1C3 (stereo not drawn) [Example 38, N-(4-oxo-2-phenylquinazolin-3(4H)-yl)adamantane-2-carboxamide]",-43.5,> 30000,
"O=C(Cc1ccc(Cl)cc1)Nn1c(C23CC4CC(CC2C4)C3)nc2ccccc2c1=O [Example 2, 2-(4-chlorophenyl)-N-(2-hexahydro-2,5-methanopentalen-3a(1H)-yl-4-oxoquinazolin-3(4H)-yl)acetamide]",140,198,
"CC(C)c1nc2ccccc2c(=O)n1NC(=O)CC1CC2CCC1C2 (racemic) [Example 11, (±)-exo-2-bicyclo[2.2.1]hept-2-yl-N-(2-isopropyl-4-oxoquinazolin-3(4H)-yl)acetamide]",,90.6,175
"O=C(CC12CC3CC(CC(C3)C1)C2)Nn1cnc2scc(-c3ccc(F)cc3)c2c1=O [Example 27, 2-(1-adamantyl)-N-[5-(4-fluorophenyl)-4-oxothieno[2,3-d]pyrimidin-3(4H)-yl]acetamide]",199,846,
"Cc1nc2sc3c(c2c(=O)n1NC(=O)CC12CC4CC(CC(C4)C1)C2)CCCCC3 [Example 48, 2-(1-adamantyl)-N-(2-methyl-4-oxo-6,7,8,9-tetrahydro-4H-cyclohepta[4,5]thieno[2,3-d]pyrimidin-3(5H)-yl)acetamide]",89.8,10900,
